In ChEMBL document CHEMBL1201862, “PubChem BioAssay data set” (2004):
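Test compounds were applied to cells in 96-well plates for 48 hours at 5 doses. GI50 is the concentration that inhibits growth by half.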 Calls of active or inactive are those of the source. Cut-off read from the data, not from the text of the source: active = GI50 up to about 1.1 µM and inactive = higher.

What was measured:
Assay in all cases: DTP human tumour cell line panel, 48 h
[1] = system: A549
[2] = system: CAKI-1
[3] = system: COLO 205
[4] = system: HCT-15
[5] = system: HOP-62
[6] = system: HT-29
[7] = system: IGROV-1
[8] = system: K562
[9] = system: LOX IMVI
[10] = system: OVCAR-3
[11] = system: OVCAR-5
[12] = system: RXF 393
[13] = system: SN12C
[14] = system: SNB-19
[15] = system: KM12
[16] = system: SF-268
[17] = system: NCI-H522

SMILES	GI50 [1]	GI50 [2]	GI50 [3]	GI50 [4] [µM]	GI50 [5]	GI50 [6]	GI50 [7]	GI50 [8]	GI50 [9]	GI50 [10]	GI50 [11]	GI50 [12]	GI50 [13]	GI50 [14]	GI50 [15]	GI50 [16]	GI50 [17]
COc1ccc(C2=C(Cl)c3cc(OC)c(OC)cc3C2Cl)cc1OC (stereo not given)	19.5 µM (inactive)	14.7 µM (inactive)	18.3 µM (inactive)	18.2	16.5 µM (inactive)	16.3 µM (inactive)	20.9 µM (inactive)	10.8 µM (inactive)	14.9 µM (inactive)	15.1 µM (inactive)	16.3 µM (inactive)	14.2 µM (inactive)	17.9 µM (inactive)	15.9 µM (inactive)	–	–	–
CC(=O)N1c2ccccc2C2=CC3C4C(=O)N(c5ccccc5)C(=O)C4C21C1C(=O)N(c2ccccc2)C(=O)C31 (stereo not given)	32.4 µM (inactive)	48.3 µM (inactive)	59.7 µM (inactive)	17.1	–	36.9 µM (inactive)	75.7 µM (inactive)	15.1 µM (inactive)	43.9 µM (inactive)	–	55.1 µM (inactive)	–	42.7 µM (inactive)	16.4 µM (inactive)	35.6 µM (inactive)	17.3 µM (inactive)	–
COc1cc(CNc2nc3ccc(C(F)(F)F)cc3nc2-c2ccccc2)cc(OC)c1OC	20 µM (inactive)	14.3 µM (inactive)	38.5 µM (inactive)	25.4	76.6 µM (inactive)	32.9 µM (inactive)	67.3 µM (inactive)	18.6 µM (inactive)	32.1 µM (inactive)	26.4 µM (inactive)	> 100 µM (inactive)	–	29.6 µM (inactive)	65.8 µM (inactive)	24.6 µM (inactive)	19.5 µM (inactive)	11.5 µM (inactive)
NC(=O)CN(CC(N)=O)C(N)=O	> 100 µM (inactive)	> 100 µM (inactive)	> 100 µM (inactive)	> 100	–	> 100 µM (inactive)	> 100 µM (inactive)	> 100 µM (inactive)	> 100 µM (inactive)	> 100 µM (inactive)	> 100 µM (inactive)	> 100 µM (inactive)	–	> 100 µM (inactive)	> 100 µM (inactive)	> 100 µM (inactive)	> 100 µM (inactive)
COc1cc(Br)c(C2OCCCO2)cc1OCc1ccccc1	73.5 µM (inactive)	–	> 100 µM (inactive)	61.1	> 100 µM (inactive)	> 100 µM (inactive)	> 100 µM (inactive)	53.2 µM (inactive)	78.3 µM (inactive)	47.2 µM (inactive)	> 100 µM (inactive)	64 µM (inactive)	> 100 µM (inactive)	> 100 µM (inactive)	> 100 µM (inactive)	39 µM (inactive)	66.1 µM (inactive)
CN(Cc1ccccc1)c1nc(=[N+](C)C)ss1	33.2 µM (inactive)	> 100 µM (inactive)	–	> 100	> 100 µM (inactive)	74.8 µM (inactive)	> 100 µM (inactive)	23.4 µM (inactive)	36.8 µM (inactive)	–	> 100 µM (inactive)	> 100 µM (inactive)	65 µM (inactive)	86.5 µM (inactive)	9.42 µM (inactive)	49.1 µM (inactive)	41.1 µM (inactive)
Nc1c(-c2ccccc2-c2c(N)[n+]([O-])c3ccccc3[n+]2[O-])[n+]([O-])c2ccccc2[n+]1[O-]	11.4 µM (inactive)	33.5 µM (inactive)	4.69 µM (inactive)	5.28	–	6.9 µM (inactive)	–	5.74 µM (inactive)	8.83 µM (inactive)	7.45 µM (inactive)	64.6 µM (inactive)	30.3 µM (inactive)	6.17 µM (inactive)	7.91 µM (inactive)	8.32 µM (inactive)	3.16 µM (inactive)	2.06 µM (inactive)
COc1ccc(/C=C/c2nnc(S)[nH]2)cc1	> 100 µM (inactive)	> 100 µM (inactive)	–	> 100	–	> 100 µM (inactive)	> 100 µM (inactive)	> 100 µM (inactive)	> 100 µM (inactive)	> 100 µM (inactive)	> 100 µM (inactive)	> 100 µM (inactive)	> 100 µM (inactive)	> 100 µM (inactive)	–	> 100 µM (inactive)	> 100 µM (inactive)
O=C1c2ccncc2C(=O)c2c(O)ccc(O)c21	5.48 µM (inactive)	> 10 µM (inactive)	3.72 µM (inactive)	4.52	32.2 µM (inactive)	3.07 µM (inactive)	12.5 µM (inactive)	10.1 µM (inactive)	4.25 µM (inactive)	1.95 µM (inactive)	16 µM (inactive)	4.35 µM (inactive)	4.73 µM (inactive)	12.4 µM (inactive)	6.07 µM (inactive)	11.1 µM (inactive)	–
COc1ccc(/C=C/C(=O)c2sc(NC(=S)NC(=O)c3ccc(Cl)cc3)nc2C)cc1OC	43 µM (inactive)	75.9 µM (inactive)	37.2 µM (inactive)	35	47.5 µM (inactive)	88.1 µM (inactive)	43.1 µM (inactive)	27.4 µM (inactive)	32.2 µM (inactive)	38.4 µM (inactive)	> 100 µM (inactive)	95.5 µM (inactive)	36.6 µM (inactive)	40.5 µM (inactive)	59.2 µM (inactive)	94.8 µM (inactive)	> 10 µM (inactive)
COc1cc(NS(C)(=O)=O)ccc1NCc1c2ccccc2nc2ccccc12	67 µM (inactive)	21.7 µM (inactive)	70.1 µM (inactive)	21.7	–	31.6 µM (inactive)	29.4 µM (inactive)	7.87 µM (inactive)	23.2 µM (inactive)	43.5 µM (inactive)	> 100 µM (inactive)	13.9 µM (inactive)	28.3 µM (inactive)	51.8 µM (inactive)	7.66 µM (inactive)	32.1 µM (inactive)	24.3 µM (inactive)
O=C1N/C(=C\[N+](=O)[O-])c2ccccc21	> 100 µM (inactive)	–	> 100 µM (inactive)	> 100	> 100 µM (inactive)	> 100 µM (inactive)	> 100 µM (inactive)	> 100 µM (inactive)	> 100 µM (inactive)	> 100 µM (inactive)	> 100 µM (inactive)	> 100 µM (inactive)	> 100 µM (inactive)	> 100 µM (inactive)	> 100 µM (inactive)	> 100 µM (inactive)	> 100 µM (inactive)
COc1ccc(C2=NOP(c3ccccc3)(c3ccccc3)(c3ccccc3)C2)cc1	22.5 µM (inactive)	25.1 µM (inactive)	9.64 µM (inactive)	20.4	20.8 µM (inactive)	1.55 µM (inactive)	3.35 µM (inactive)	4.25 µM (inactive)	10.1 µM (inactive)	21.7 µM (inactive)	4.45 µM (inactive)	28.9 µM (inactive)	29.6 µM (inactive)	51.4 µM (inactive)	34.1 µM (inactive)	40.4 µM (inactive)	7.91 µM (inactive)
O=[N+]([O-])CCc1cccc([N+](=O)[O-])c1	> 100 µM (inactive)	> 100 µM (inactive)	> 100 µM (inactive)	> 100	> 100 µM (inactive)	> 100 µM (inactive)	> 100 µM (inactive)	> 100 µM (inactive)	> 100 µM (inactive)	> 100 µM (inactive)	> 100 µM (inactive)	> 100 µM (inactive)	> 100 µM (inactive)	> 100 µM (inactive)	> 100 µM (inactive)	> 100 µM (inactive)	> 100 µM (inactive)
CCCN(CCCCC(NC(C)=O)C(=O)NCc1ccccc1)C(=O)NCCCl (stereo not given)	> 100 µM (inactive)	> 100 µM (inactive)	> 100 µM (inactive)	> 100	> 100 µM (inactive)	> 100 µM (inactive)	–	> 100 µM (inactive)	–	> 100 µM (inactive)	–	> 100 µM (inactive)	> 100 µM (inactive)	> 100 µM (inactive)	> 100 µM (inactive)	> 100 µM (inactive)	> 100 µM (inactive)
COc1cc2cc3c4c(cc(OC)c(OC)c4c2cc1OC)CCN3C(=O)CCC(=O)NCCCN(C)C	> 100 µM (inactive)	> 100 µM (inactive)	32.6 µM (inactive)	> 100	50.7 µM (inactive)	22.6 µM (inactive)	> 100 µM (inactive)	33.6 µM (inactive)	14.3 µM (inactive)	> 100 µM (inactive)	–	> 100 µM (inactive)	> 100 µM (inactive)	> 100 µM (inactive)	67.1 µM (inactive)	> 100 µM (inactive)	21.8 µM (inactive)
CC(=O)O[C@H]1CCC2[C@@H]3CCC4Nc5c(cnn5-c5ccccc5)C[C@]4(C)C3CC[C@@]21C (stereo not given in full)	17.5 µM (inactive)	3.2 µM (inactive)	14.5 µM (inactive)	13.2	18.3 µM (inactive)	8.24 µM (inactive)	20.7 µM (inactive)	12.6 µM (inactive)	12.8 µM (inactive)	6.92 µM (inactive)	17.4 µM (inactive)	5.65 µM (inactive)	19.1 µM (inactive)	14.5 µM (inactive)	17.7 µM (inactive)	32.5 µM (inactive)	14.7 µM (inactive)
CCc1ccccc1-n1c2nc(=O)n(C)c(=O)c-2nc2ccccc21	8.24 µM (inactive)	20 µM (inactive)	2.77 µM (inactive)	10	29.6 µM (inactive)	3.63 µM (inactive)	17.5 µM (inactive)	12.1 µM (inactive)	–	2.49 µM (inactive)	20 µM (inactive)	13.7 µM (inactive)	13.5 µM (inactive)	10.8 µM (inactive)	10.8 µM (inactive)	11 µM (inactive)	13.6 µM (inactive)
